Test [1] deals with K562. The test is described as follows: Antiproliferative activity against human K562 cells assessed as reduction in cell proliferation incubated for 3 days by calcein AM staining based fluorescent analysis. Type of test: functional. The settings on record: K562, 72 h.
Test [2] addresses Cyclin-dependent kinase 2/cyclin E1 (Homo sapiens, UniProt P24941). The test is described as follows: Inhibition of CDK2/cyclin E1 (unknown origin) expressed in Sf9 cells using histone H1 as substrate in presence of ATP by microplate reader analysis.
The subject of test [3] is MCF7. The test is described as follows: Antiproliferative activity against human MCF7 cells assessed as reduction in cell proliferation incubated for 3 days by calcein AM staining based fluorescent analysis. Type of test: functional. The following applies: MCF7, 72 h.
Test [4] concerns MCF7. The test is described as follows: Antiproliferative activity against human MCF7 cells assessed as reduction in cell proliferation incubated for 48 hrs by Sulfo-Rhodamine-B stain (SRB) assay. Type of test: functional, cell-based. The following applies: MCF7, 48 h.
Test [5] relates to Panel NCI-60 (60 carcinoma cell lines). The test is described as follows: Antiproliferative activity against human Panel NCI-60 (60 carcinoma cell lines) cells assessed as inhibition of cell growth at 0.00001 M incubated for 48 hrs by sulforhodamine B assay. Type of test: functional. Details: scale not given: the % may be the effect or the level left. The settings on record: dose 10 µM.

Test [6] deals with HeLa. The test is described as follows: Antiproliferative activity against human Hela cells assessed as reduction in cell viability by MTT assay. Type of test: functional, cell-based. (In general: Tetrazolium assays rely on reduction of a dye to a coloured formazan, in cell work by metabolically active cells.)
For test [7], the target named is Cyclin-dependent kinase 2 (Homo sapiens, UniProt P24941).
Description: Inhibition of CDK2 (unknown origin)
Test [8] deals with CDK2/Cyclin A2 (Homo sapiens, UniProt P24941). The test is described as follows: Inhibition of CDK2/cyclin A2 (unknown origin) using histone as substrate in presence of ATP by luminescent ADP detection assay. Type of test: protein-complex assay.

Molecules are shown by their SMILES. A value given as a limit tells only on which side of the number the result lay.

`CCCCCSc1nc(OC(=O)c2ccccc2)c2cn[nH]c2n1`: the IC50 in test [1] was 19.8 µM; in test [2], 14.8 µM; in test [3], 18.9 µM.

Consider `NS(=O)(=O)c1ccc(S(=O)(=O)Nc2cccc3c(Cl)c[nH]c23)cc1`, for which, in test [4], the IC50 turned out to be 36.3 µM. In the case of `Clc1ccccc1Nc1nc(SCCc2ccccc2)nc2[nH]ncc12`, the IC50 in test [1] was 19.9 µM; in test [2], 7.8 µM; in test [3], 19.2 µM. As to `COc1ccc(-n2c(-c3ccccc3)c(-c3ccccc3)c3c(SCC(=O)N/N=C\c4ccccc4[N+](=O)[O-])ncnc32)cc1`, the Activity in test [5] is given as under 50%.

`CCOC(=O)CSc1ncnc2c1c(-c1ccccc1)c(-c1ccccc1)n2-c1ccc(C)cc1`: in test [5], the Activity is under 50%. With `CCOC(=O)C1=C(Cn2cc(COc3ccccc3C3NC(=O)NC(CCl)=C3C(=O)OCC)nn2)NC(=O)NC1c1ccc([N+](=O)[O-])cc1` (stereo not given), the IC50 in test [6] turned out to be 18 µM. For `CCCCCSc1nc(Nc2ccccc2Cl)c2cn[nH]c2n1`, the IC50 in test [1] was 19.9 µM; in test [2] it was 5.1 µM; in test [3], 19.2 µM. Consider `C[C@@H](CO)Nc1nc(N)c(N=O)c(OCC2CCCCC2)n1`, for which, in test [7], the IC50 is 0.16 µM. With `Cc1ccc(S(=O)(=O)Nc2ccc(-c3ccnc(Nc4ccc(S(=O)(=O)Nc5cc(C)no5)cc4)c3C#N)cc2)cc1`, in test [4], the IC50 was 20.4 µM. In the case of `C[C@@H](CO)Nc1nc(N)c(/[N+]([O-])=N/C#N)c(OCC2CCCCC2)n1`, the midpoint of inhibition in test [7], the IC50, lay at 0.3 µM. For `CN1CCN(C(=O)c2cnn(-c3cc(NCc4ccccc4)ncn3)c2)CC1`, the IC50 in test [8] is under 0.02 µM. Turning to `CCCCCSc1nc(OC(=O)c2ccco2)c2cn[nH]c2n1`, the IC50 is 19.8 µM in test [1], 21.2 µM in test [2] and 18.9 µM in test [3]. As to `CCCCCSc1nc(Nc2ccc(SC)cc2)c2cn[nH]c2n1`, the results for the IC50 in test [1], in test [2] and in test [3] were 19.9 µM, 8.8 µM and 19.2 µM, respectively.

For the compound `O=[N+]([O-])c1cccc(Nc2nc(SCCc3ccccc3)nc3[nH]ncc23)c1`, the results for the IC50 in test [1], in test [2] and in test [3] were 19.9 µM, 8.7 µM and 19.2 µM, respectively. As for `CCOC(=O)C1=C(Cn2cc(COc3ccccc3C3NC(=O)NC(CCl)=C3C(=O)OCC)nn2)NC(=O)NC1c1ccc(O)c(OC)c1` (stereo not given), in test [6], the IC50 was determined as 18 µM. As to `Cc1ccc(-n2cc(-c3ccccc3)c3c(SCC(=O)N/N=C\c4ccc(N(C)C)cc4)ncnc32)cc1`, the Activity in test [5] was under 50%. Take `O=C(Oc1nc(SCCc2ccccc2)nc2[nH]ncc12)c1cc2ccccc2o1`: the IC50 is 19.8 µM in test [1] and 18.9 µM in test [3].

On to `CCOC(=O)C1=C(Cn2cc(COc3ccccc3C3NC(=O)NC(CCl)=C3C(=O)OCC)nn2)NC(=O)NC1c1ccccc1F` (stereo not given), for which the IC50 in test [6] amounted to 18 µM. In the case of `O=C(c1cnn(-c2cc(NCc3ccccc3)ncn2)c1)N1CCOCC1`, the IC50 in test [8] is under 0.02 µM.

With `CCCCCSc1nc(OC(=O)c2cc3ccccc3o2)c2cn[nH]c2n1`, the IC50 in test [1] is 19.8 µM; in test [2], 8.8 µM; in test [3], 18.9 µM. Turning to `COc1ccc(NC(=O)c2cnn(-c3cc(NCc4ccccc4)ncn3)c2)cc1`, the IC50 in test [8] is under 0.02 µM. For the compound `CCCCCSc1nc(OC(=O)CC(C)(C)C)c2cn[nH]c2n1`, the half-maximal inhibitory concentration (IC50) is 19.8 µM in test [1], 16.9 µM in test [2] and 18.9 µM in test [3]. For `COc1ccc(-n2c(-c3ccccc3)c(-c3ccccc3)c3c(SCC(=O)N/N=C\c4ccc(N(C)C)cc4)ncnc32)cc1`, the Activity in test [5] is under 50%.

`O=C1CC(=O)N(c2ccc(F)cc2)C(=S)N1C(=O)c1ccccc1`: the IC50 in test [7] is 4.5 µM. As to `O=C(Nc1ccc(O)cc1)c1cnn(-c2cc(NCc3ccccc3)ncn2)c1`, in test [8], the IC50 was under 0.02 µM. Take `Cc1ccc(-n2cc(-c3ccccc3)c3c(SCC(=O)N/N=C\c4ccccc4[N+](=O)[O-])ncnc32)cc1`: the Activity in test [5] is listed as under 50%.

Regarding `O=C(Nc1ccc(F)cc1)c1cnn(-c2cc(NCc3ccccc3)ncn2)c1`, in test [8], the concentration for half-maximal inhibition (IC50) is under 0.02 µM. As to `CCOC(=O)C1=C(CCl)NC(=O)NC1c1ccc(OCc2cn(CC3=C(C(=O)OCC)C(c4ccc([N+](=O)[O-])cc4)NC(=O)N3)nn2)cc1` (stereo not given), the IC50 in test [6] came to 18 µM.

What is called IC50 is the concentration that gives 50% inhibition.
